Experimental data published in patent US10011607B2, “Ethynyl derivatives” (Hoffmann-La Roche Inc., priority 2015, dated 2018).

Molecular target: human mGlu4 receptor (Homo sapiens (Human), UniProt Q14833)
Assay: Ca2+ mobilization in vitro assay on recombinant human mGlu4 expressed in HEK293 cells (PAM)
Assay type: cell-based
Details: for Emax: HEK293, maximal response in % of maximal stimulatory effect of saturating L-AP4, read-out: Eff. (%); for EC50: HEK293 cells, human mGlu4, in presence of EC20 of L-AP4, read-out: EC50 (nM) mGlu4PAM
From the text: FIG. 1: Illustrates the experimental outline for mGlu4 PAM Ca^2+ mobilization screening assay and the determination of EC50 and % Emax values. […] A depression of the signal observed after addition of the EC20 concentration of L-AP4 was indicative of an inhibitory activity of the test compound.
Determination of EC50 Values Using a Ca2+ Mobilization In Vitro Assay on Recombinant Human mGlu4 Expressed in HEK293 Cells:
A monoclonal HEK-293 cell line stably transfected with a cDNA encoding for the human mGlu4 receptor was generated; for the work with mGlu4 Positive Allosteric Modulators (PAMs), a cell line with low receptor expression levels and low constitutive receptor activity was selected to allow the differentiation of agonistic versus PAM activity. Cells were cultured according to standard protocols (Freshney, 2000) in Dulbecco's Modified Eagle Medium with high glucose supplemented with 1 mM glutamine, 10% (vol/vol) heat-inactivated bovine calf serum, Penicillin/Streptomycin, 50 μg/ml hygromycin and 15 μg/ml blasticidin (all cell culture reagents and antibiotics from Invitrogen, Basel, Switzerland).
About 24 hrs before an experiment, 5×10^4 cells/well were seeded in poly-D-lysine coated, black/clear-bottomed 96-well plates. The cells were loaded with 2.5 μM Fluo-4AM in loading buffer (1×HBSS, 20 mM HEPES) for 1 hr at 37° C. and washed five times with loading buffer. The cells were transferred into a Functional Drug Screening System 7000 (Hamamatsu, Paris, France), and 11 half logarithmic serial dilutions of test compound at 37° C. were added and the cells were incubated for 10-30 min. with on-line recording of fluorescence. Following this pre-incubation step, the agonist (2S)-2-amino-4-phosphonobutanoic acid (L-AP4) was added to the cells at a concentration corresponding to EC20 with on-line recording of fluorescence; in order to account for day-to-day variations in the responsiveness of cells, the EC20 of L-AP4 was determined immediately ahead of each experiment by recording of a full dose-response curve of L-AP4.
Responses were measured as peak increase in fluorescence minus basal (i.e. fluorescence without addition of L-AP4), normalized to the maximal stimulatory effect obtained with saturating concentrations of L-AP4. Graphs were plotted with the % maximal stimulatory using XLfit, a curve fitting program that iteratively plots the data using Levenburg Marquardt algorithm. The single site competition analysis equation used was y=A+((B−A)/(1+((x/C)D))), where y is the % maximal stimulatory effect, A is the minimum y, B is the maximum y, C is the EC50, x is the log 10 of the concentration of the competing compound and D is the slope of the curve (the Hill Coefficient). From these curves the EC50 (drug concentration at which 50% of the maximal receptor activation was achieved), the Hill coefficient as well as the maximal response in % of the maximal stimulatory effect obtained with saturating concentrations of L-AP4 were calculated (see FIG. 1).

Sequence of human mGlu4 receptor (Q14833 33-912): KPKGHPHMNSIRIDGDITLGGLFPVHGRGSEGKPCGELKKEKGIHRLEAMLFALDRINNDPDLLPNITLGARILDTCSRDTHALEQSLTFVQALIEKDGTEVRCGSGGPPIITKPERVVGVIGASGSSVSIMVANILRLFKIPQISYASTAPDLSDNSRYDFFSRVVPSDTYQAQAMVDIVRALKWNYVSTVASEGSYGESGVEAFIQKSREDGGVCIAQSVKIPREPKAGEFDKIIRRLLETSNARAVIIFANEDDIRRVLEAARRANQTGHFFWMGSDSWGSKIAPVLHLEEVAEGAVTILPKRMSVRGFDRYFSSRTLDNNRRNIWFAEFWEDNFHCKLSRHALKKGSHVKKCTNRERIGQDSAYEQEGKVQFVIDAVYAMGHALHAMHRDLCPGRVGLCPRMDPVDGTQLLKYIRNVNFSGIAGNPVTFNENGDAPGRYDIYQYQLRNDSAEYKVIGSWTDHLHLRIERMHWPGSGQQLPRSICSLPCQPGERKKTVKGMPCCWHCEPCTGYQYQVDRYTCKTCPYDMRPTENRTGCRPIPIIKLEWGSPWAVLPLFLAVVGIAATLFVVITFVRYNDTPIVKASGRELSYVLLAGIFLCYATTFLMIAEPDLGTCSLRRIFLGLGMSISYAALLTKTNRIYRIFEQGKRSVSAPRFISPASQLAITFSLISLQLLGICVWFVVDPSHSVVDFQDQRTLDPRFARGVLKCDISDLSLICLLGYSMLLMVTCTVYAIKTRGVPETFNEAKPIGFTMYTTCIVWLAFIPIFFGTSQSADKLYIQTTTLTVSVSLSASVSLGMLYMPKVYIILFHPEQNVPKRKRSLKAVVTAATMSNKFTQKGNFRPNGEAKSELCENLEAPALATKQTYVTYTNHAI

In the case of `CC12CC(=O)N(c3c(F)cc(C#Cc4ccccc4)cc3F)C(=O)N1CCN(Cc1ccncn1)C2=O` (racemic) [Example 95, (9aRS)-7-[2,6-difluoro-4-(2-phenylethynyl)phenyl]-9a-methyl-2-(pyrimidin-4-ylmethyl)-4,9-dihydro-3H-pyrazino[1,2-c]pyrimidine-1,6,8-trione], the Emax is reported as 96% and the EC50 is reported as 142 nM.

`O=C1C2CC(=O)N(c3c(F)cc(C#Cc4ccccc4)cc3F)C(=O)N2CCN1c1cccnc1` (racemic) [Example 1, (9aRS)-7-[2,6-difluoro-4-(2-phenylethynyl)phenyl]-2-(3-pyridyl)-3,4,9,9a-tetrahydropyrazino[1,2-c]pyrimidine-1,6,8-trione] gave an Emax of 105% and an EC50 of 224 nM.

For `Cc1cc(N2CCN3C(=O)N(c4c(F)cc(C#Cc5ccccc5)cc4F)C(=O)C[C@@]3(C)C2=O)ncn1` [Example 35, (9aS)-7-[2,6-difluoro-4-(2-phenylethynyl)phenyl]-9a-methyl-2-(6-methylpyrimidin-4-yl)-4,9-dihydro-3H-pyrazino[1,2-c]pyrimidine-1,6,8-trione], the Emax was 121% and the EC50 was 91 nM.

`C[C@@]12CC(=O)N(c3c(F)cc(C#Cc4ccccc4)cc3F)C(=O)N1CCN(c1cnc(O)nc1)C2=O` [Example 42, (9aS)-7-[2,6-difluoro-4-(2-phenylethynyl)phenyl]-2-(2-hydroxypyrimidin-5-yl)-9a-methyl-4,9-dihydro-3H-pyrazino[1,2-c]pyrimidine-1,6,8-trione] gave an Emax of 129% and an EC50 of 73 nM.

In the case of `CC(C)(C)Oc1ncc(N2CCN3C(=O)N(c4c(F)cc(C#Cc5ccccc5)cc4F)C(=O)C[C@@]3(C)C2=O)cn1` [Example 38, (9aS)-2-(2-tert-butoxypyrimidin-5-yl)-7-[2,6-difluoro-4-(2-phenylethynyl)phenyl]-9a-methyl-4,9-dihydro-3H-pyrazino[1,2-c]pyrimidine-1,6,8-trione], the Emax is reported as 107%.

Work on `CC12CC(=O)N(c3c(F)cc(C#Cc4ccccc4)cc3Cl)C(=O)N1CCN(c1ccccn1)C2=O` (racemic) [Example 76, (9aRS)-7-[2-chloro-6-fluoro-4-(2-phenylethynyl)phenyl]-9a-methyl-2-(2-pyridyl)-4,9-dihydro-3H-pyrazino[1,2-c]pyrimidine-1,6,8-trione] yielded an Emax of 150% and an EC50 of 128 nM.

`CC12CC(=O)N(c3c(F)cc(C#Cc4ccccc4)cc3Cl)C(=O)N1CCN(c1cccnc1)C2=O` (racemic) [Example 74, (9aRS)-7-[2-chloro-6-fluoro-4-(2-phenylethynyl)phenyl]-9a-methyl-2-(3-pyridyl)-4,9-dihydro-3H-pyrazino[1,2-c]pyrimidine-1,6,8-trione] was tested, and the Emax was 120% and the EC50 was 102 nM.

Compound `C[C@@]12CC(=O)N(c3c(F)cc(C#Cc4ccccc4)cc3F)C(=O)N1CCN(c1ccc(Cl)nc1)C2=O` [Example 21, (9aS)-2-(6-chloro-3-pyridyl)-7-[2,6-difluoro-4-(2-phenylethynyl)phenyl]-9a-methyl-4,9-dihydro-3H-pyrazino[1,2-c]pyrimidine-1,6,8-trione] has an Emax of 142% and an EC50 of 73 nM.

With `C[C@@]12CC(=O)N(c3c(F)cc(C#Cc4ccccc4)cc3F)C(=O)N1CCN(c1cnc(OCc3ccccc3)cn1)C2=O` [Example 45, (9aS)-2-(5-benzyloxypyrazin-2-yl)-7-[2,6-difluoro-4-(2-phenylethynyl)phenyl]-9a-methyl-4,9-dihydro-3H-pyrazino[1,2-c]pyrimidine-1,6,8-trione] the Emax was 122% and the EC50 was 190 nM.

Compound `Cn1cnc(N2CCN3C(=O)N(c4c(F)cc(C#Cc5ccccc5)cc4F)C(=O)C[C@@]3(C)C2=O)n1` [Example 73, (9aS)-7-[2,6-difluoro-4-(2-phenylethynyl)phenyl]-9a-methyl-2-(1-methyl-1,2,4-triazol-3-yl)-4,9-dihydro-3H-pyrazino[1,2-c]pyrimidine-1,6,8-trione] has an Emax of 138% and an EC50 of 244 nM.

`C[C@@]12CC(=O)N(c3c(F)cc(C#Cc4ccccc4F)cc3F)C(=O)N1CCN(c1ccncn1)C2=O` [Example 110, (9aS)-7-[2,6-difluoro-4-[2-(2-fluorophenyl)ethynyl]phenyl]-9a-methyl-2-pyrimidin-4-yl-4,9-dihydro-3H-pyrazino[1,2-c]pyrimidine-1,6,8-trione] showed an Emax of 90% and an EC50 of 31 nM.

`COCCN1CCN2C(=O)N(c3c(F)cc(C#Cc4ccccc4)cc3F)C(=O)C[C@@]2(C)C1=O` [Example 79, (9aS)-7-[2,6-difluoro-4-(2-phenylethynyl)phenyl]-2-(2-methoxyethyl)-9a-methyl-4,9-dihydro-3H-pyrazino[1,2-c]pyrimidine-1,6,8-trione] gave an Emax of 122% and an EC50 of 137 nM.

`C[C@@]12CC(=O)N(c3c(F)cc(C#Cc4ccccc4)cc3F)C(=O)N1CCN(CCn1ccnc1)C2=O` [Example 98, (9aS)-7-[2,6-difluoro-4-(2-phenylethynyl)phenyl]-2-(2-imidazol-1-ylethyl)-9a-methyl-4,9-dihydro-3H-pyrazino[1,2-c]pyrimidine-1,6,8-trione] gave an Emax of 135% and an EC50 of 283 nM.

For `Cn1cc(N2CCN3C(=O)N(c4c(F)cc(C#Cc5ccccc5)cc4F)C(=O)C[C@@]3(C)C2=O)cn1` [Example 68, (9aS)-7-[2,6-difluoro-4-(2-phenylethynyl)phenyl]-9a-methyl-2-(1-methylpyrazol-4-yl)-4,9-dihydro-3H-pyrazino[1,2-c]pyrimidine-1,6,8-trione], the Emax was 135% and the EC50 was 90 nM.

In the case of `O=C1C2CC(=O)N(c3c(F)cc(C#Cc4ccccc4)cc3F)C(=O)N2CCN1c1ccccn1` (racemic) [Example 3, (9aRS)-7-[2,6-difluoro-4-(2-phenylethynyl)phenyl]-2-(2-pyridyl)-3,4,9,9a-tetrahydropyrazino[1,2-c]pyrimidine-1,6,8-trione], the Emax is reported as 116% and the EC50 is reported as 235 nM.

`CC12CC(=O)N(c3c(F)cc(C#Cc4ccccc4)cc3F)C(=O)N1CCN(c1cccnc1)C2=O` (racemic) [Example 6, (9aRS)-7-[2,6-difluoro-4-(2-phenylethynyl)phenyl]-9a-methyl-2-(3-pyridyl)-4,9-dihydro-3H-pyrazino[1,2-c]pyrimidine-1,6,8-trione] was tested, and the Emax was 122% and the EC50 was 118 nM.

Work on `Cc1cc(N2CCN3C(=O)N(c4c(F)cc(C#Cc5ccccc5)cc4F)C(=O)CC3(C)C2=O)ccn1` (racemic) [Example 11, (9aRS)-7-[2,6-difluoro-4-(2-phenylethynyl)phenyl]-9a-methyl-2-(2-methyl-4-pyridyl)-4,9-dihydro-3H-pyrazino[1,2-c]pyrimidine-1,6,8-trione] yielded an Emax of 119% and an EC50 of 214 nM.

Work on `Cn1cc(N2CCN3C(=O)N(c4c(F)cc(C#Cc5ccccc5)cc4F)C(=O)CC3(C)C2=O)cn1` (racemic) [Example 67, (9aRS)-7-[2,6-difluoro-4-(2-phenylethynyl)phenyl]-9a-methyl-2-(1-methylpyrazol-4-yl)-4,9-dihydro-3H-pyrazino[1,2-c]pyrimidine-1,6,8-trione] yielded an Emax of 129% and an EC50 of 113 nM.

`C[C@@]12CC(=O)N(c3c(F)cc(C#Cc4ccccc4)cc3F)C(=O)N1CCN(Cc1ccc(F)cc1)C2=O` [Example 91, (9aS)-7-[2,6-difluoro-4-(2-phenylethynyl)phenyl]-2-[(4-fluorophenyl)methyl]-9a-methyl-4,9-dihydro-3H-pyrazino[1,2-c]pyrimidine-1,6,8-trione] showed an Emax of 101% and an EC50 of 147 nM.

Work on `Cn1nccc1CN1CCN2C(=O)N(c3c(F)cc(C#Cc4ccccc4)cc3F)C(=O)C[C@@]2(C)C1=O` [Example 97, (9aS)-7-[2,6-difluoro-4-(2-phenylethynyl)phenyl]-9a-methyl-2-[(2-methylpyrazol-3-yl)methyl]-4,9-dihydro-3H-pyrazino[1,2-c]pyrimidine-1,6,8-trione] yielded an Emax of 128% and an EC50 of 76 nM.

With `Cc1nccn1CCN1CCN2C(=O)N(c3c(F)cc(C#Cc4ccccc4)cc3F)C(=O)C[C@@]2(C)C1=O` [Example 99, (9aS)-7-[2,6-difluoro-4-(2-phenylethynyl)phenyl]-9a-methyl-2-[2-(2-methylimidazol-1-yl)ethyl]-4,9-dihydro-3H-pyrazino[1,2-c]pyrimidine-1,6,8-trione] the Emax was 146% and the EC50 was 282 nM.
